Measurements: PubChem BioAssay AID330 (DTP/NCI, 2004)
Where “and” joins values, the source holds several entries; their conditions need not be identical. Identical values can stand only once. Toxic doses and inconclusive results are not listed.

System: P388 leukemia ip, CD2F1 mice, survival T/C
Assay: NCI In Vivo Anticancer Drug Screen. Data for tumor model P388 Leukemia (intraperitoneal) in CD2F1 (CDF1) mice
Conditions: endpoint: median survival time, higher = longer survival
Method in brief: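 Mice carrying the transplanted tumor received test compound or vehicle. Survival was recorded in each group, and the value is the treated-group measurement divided by that of the vehicle-treated control group.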

[1] = dose: 60.0 mg/kg/injection, schedule: Q01DX005 (ip), vehicle: saline with Tween-80
[2] = dose: 120.0 mg/kg/injection, schedule: Q01DX005 (ip), vehicle: saline with Tween-80
[3] = dose: 240.0 mg/kg/injection, schedule: Q01DX005 (ip), vehicle: saline with Tween-80
[4] = dose: 50.0 mg/kg/injection, schedule: Q01DX009 (ip), vehicle: saline
[5] = dose: 100.0 mg/kg/injection, schedule: Q01DX009 (ip), vehicle: saline
[6] = dose: 200.0 mg/kg/injection, schedule: Q01DX009 (ip), vehicle: saline
[7] = dose: 25.0 mg/kg/injection, schedule: Q01DX005 (ip), vehicle: saline
[8] = dose: 50.0 mg/kg/injection, schedule: Q01DX005 (ip), vehicle: Klucel (hydroxypropylcellulose) (HPC)
[9] = dose: 100.0 mg/kg/injection, schedule: Q01DX005 (ip), vehicle: Klucel (hydroxypropylcellulose) (HPC)
[10] = dose: 200.0 mg/kg/injection, schedule: Q01DX005 (ip), vehicle: Klucel (hydroxypropylcellulose) (HPC)
[11] = dose: 50.0 mg/kg/injection, schedule: Q01DX005 (ip), vehicle: saline with Tween-80
[12] = dose: 100.0 mg/kg/injection, schedule: Q01DX005 (ip), vehicle: saline with Tween-80
[13] = dose: 200.0 mg/kg/injection, schedule: Q01DX005 (ip), vehicle: saline with Tween-80
[14] = dose: 15.0 mg/kg/injection, schedule: Q01DX005 (ip), vehicle: saline
[15] = dose: 30.0 mg/kg/injection, schedule: Q01DX005 (ip), vehicle: saline
[16] = dose: 60.0 mg/kg/injection, schedule: Q01DX005 (ip), vehicle: saline
[17] = dose: 60.0 mg/kg/injection, schedule: Q01DX005 (ip), vehicle: Klucel (hydroxypropylcellulose) (HPC)
[18] = dose: 120.0 mg/kg/injection, schedule: Q01DX005 (ip), vehicle: Klucel (hydroxypropylcellulose) (HPC)
[19] = dose: 50.0 mg/kg/injection, schedule: Q01DX009 (ip), vehicle: Klucel (hydroxypropylcellulose) (HPC)
[20] = dose: 100.0 mg/kg/injection, schedule: Q01DX009 (ip), vehicle: Klucel (hydroxypropylcellulose) (HPC)

[N-]=[N+]=Nc1ccnc2cc(C(F)(F)F)ccc12
T/C [1]: 103 % of control
T/C [2]: 100 % of control
T/C [3]: 96 % of control

CCOC(=O)CC[Si](CC)(CC)CC
T/C [4]: 104 % of control
T/C [5]: 93 % of control
T/C [6]: 90 % of control

CC(C)(C)N1COC2CCCC21 (stereo not drawn)
T/C (dose: 12.5 mg/kg/injection, schedule: Q01DX005 (ip), vehicle: saline): 108 % of control
T/C [7]: 100 % of control

CCN(CC)CCn1c2c(c3ccc(OC)cc31)CCN1CC3CC(OC(=O)c4cc(OC)c(OC)c(OC)c4)C(OC)C(C(=O)OC)C3CC21 (stereo not drawn)
T/C [7]: 97 % of control
T/C (dose: 50.0 mg/kg/injection, schedule: Q01DX005 (ip), vehicle: saline): 96 % of control
T/C (dose: 100.0 mg/kg/injection, schedule: Q01DX005 (ip), vehicle: saline): 101 % of control
T/C (dose: 200.0 mg/kg/injection, schedule: Q01DX005 (ip), vehicle: saline): 106 % of control

CC1=CC(=O)C2OC2C1=O (stereo not drawn)
T/C (dose: 5.0 mg/kg/injection, schedule: Q04DX002 (ip), vehicle: saline with Tween-80): 101 % of control

COC1=CCC2C(=O)C=CC(=O)C2C1 (stereo not drawn)
T/C (dose: 12.5 mg/kg/injection, schedule: Q01DX005 (ip), vehicle: Klucel (hydroxypropylcellulose) (HPC)): 101 % of control
T/C (dose: 25.0 mg/kg/injection, schedule: Q01DX005 (ip), vehicle: Klucel (hydroxypropylcellulose) (HPC)): 93 % of control
T/C [8]: 101 % of control
T/C [9]: 96 % of control
T/C [10]: 101 % of control

CC(O)(CSc1ccccc1)CSc1ccccc1 (tested in a mixture with another compound)
T/C (dose: 25.0 mg/kg/injection, schedule: Q01DX005 (ip), vehicle: saline with Tween-80): 102 % of control
T/C [11]: 100 % of control
T/C [12]: 98 % of control
T/C [13]: 100 % of control

C[C@]12C=CC(=O)NC[C@@H]1CC[C@@H]1[C@@H]2CC[C@]2(C)[C@@H](OC(=O)COc3ccc(N(CCCl)CCCl)cc3)CC[C@@H]12
T/C (dose: 7.5 mg/kg/injection, schedule: Q01DX005 (ip), vehicle: saline with Tween-80): 120 % of control
T/C (dose: 15.0 mg/kg/injection, schedule: Q01DX005 (ip), vehicle: saline with Tween-80): 120 % of control
T/C (dose: 30.0 mg/kg/injection, schedule: Q01DX005 (ip), vehicle: saline with Tween-80): 151 % of control
T/C [1]: 198 % of control and 255 % of control
T/C [2]: 157 % of control

CC1=Nc2cccnc2N(C)N1C
T/C [14]: 94 % of control
T/C [15]: 98 % of control
T/C [16]: 98 % of control and 106 % of control

O=S(=O)(O)c1ccc2c(c1)C1C(C3C2C2(Cl)C(Cl)=C(Cl)C3(Cl)C2(Cl)Cl)C2(Cl)C(Cl)=C(Cl)C1(Cl)C2(Cl)Cl (stereo not drawn)
T/C [4]: 108 % of control
T/C [5]: 108 % of control
T/C [6]: 114 % of control

COC1=C(OC)C(=O)C(OC)=C(OC)C1=O
T/C (dose: 12.5 mg/kg/injection, schedule: Q01DX009 (ip), vehicle: saline with Tween-80): 106 % of control
T/C (dose: 25.0 mg/kg/injection, schedule: Q01DX009 (ip), vehicle: saline with Tween-80): 98 % of control
T/C (dose: 50.0 mg/kg/injection, schedule: Q01DX009 (ip), vehicle: saline with Tween-80): 104 % of control

CC(=O)NCN(C)[N+](=O)[O-]
T/C [16]: 115 % of control
T/C (dose: 120.0 mg/kg/injection, schedule: Q01DX005 (ip), vehicle: saline): 97 % of control
T/C (dose: 240.0 mg/kg/injection, schedule: Q01DX005 (ip), vehicle: saline): 108 % of control

C/C(=N/N=C(N)N)c1cnc(N/N=C(\C)c2cnc(NN)nc2C)nc1C
T/C (dose: 7.5 mg/kg/injection, schedule: Q01DX005 (ip), vehicle: saline): 103 % of control
T/C [14]: 94 % of control
T/C [15]: 97 % of control

C=CCOc1cc2c(cc1Cc1ccc3c(c1)OCO3)OCO2
T/C [11]: 100 % of control
T/C [12]: 100 % of control
T/C [13]: 103 % of control

COC(=O)C1=NC(=O)C(C#N)=C(C(=O)OC)C1(C(=O)c1ccc(OC)cc1)c1ccc(OC)cc1 (stereo not drawn)
T/C [17]: 95 % of control
T/C [18]: 91 % of control

CCn1cc(C(=O)O)c(=O)c2ccc(C)[n+](C)c21
T/C (dose: 100.0 mg/kg/injection, schedule: Q04DX002 (ip), vehicle: saline): 99 % of control
T/C (dose: 200.0 mg/kg/injection, schedule: Q04DX002 (ip), vehicle: saline): 100 % of control
T/C (dose: 400.0 mg/kg/injection, schedule: Q04DX002 (ip), vehicle: saline): 98 % of control

Nc1ccc(C(=O)CC(O)(C(F)(F)F)C(F)(F)F)cc1
T/C (dose: 75.0 mg/kg/injection, schedule: Q04DX003 (ip), vehicle: saline with Tween-80): 95 % of control
T/C (dose: 150.0 mg/kg/injection, schedule: Q04DX003 (ip), vehicle: saline with Tween-80): 95 % of control
T/C (dose: 300.0 mg/kg/injection, schedule: Q04DX003 (ip), vehicle: saline with Tween-80): 100 % of control

COC(=O)C1C(C)(C)N=NC1(C)C
T/C (dose: 12.5 mg/kg/injection, schedule: Q01DX009 (ip), vehicle: other): 113 % of control
T/C (dose: 25.0 mg/kg/injection, schedule: Q01DX009 (ip), vehicle: other): 115 % of control
T/C (dose: 50.0 mg/kg/injection, schedule: Q01DX009 (ip), vehicle: other): 105 % of control
T/C (dose: 100.0 mg/kg/injection, schedule: Q01DX009 (ip), vehicle: other): 103 % of control
T/C (dose: 200.0 mg/kg/injection, schedule: Q01DX009 (ip), vehicle: other): 108 % of control

O=NNc1ncc(Cl)cc1Cl
T/C (dose: 1.56 mg/kg/injection, schedule: Q01DX009 (ip), vehicle: water): 106 % of control
T/C (dose: 3.12 mg/kg/injection, schedule: Q01DX009 (ip), vehicle: water): 101 % of control
T/C (dose: 6.0 mg/kg/injection, schedule: Q01DX009 (ip), vehicle: water): 118 % of control
T/C (dose: 6.25 mg/kg/injection, schedule: Q01DX009 (ip), vehicle: water): 107 % of control
T/C (dose: 12.5 mg/kg/injection, schedule: Q01DX009 (ip), vehicle: water): 111 % of control and 120 % of control
T/C (dose: 25.0 mg/kg/injection, schedule: Q01DX009 (ip), vehicle: water): 120 % of control

O=C1C=C2OCOC2=C/C1=C/C=C/c1ccccc1
T/C (dose: 2.5 mg/kg/injection, schedule: Q01DX009 (ip), vehicle: saline with Tween-80): 102 % of control
T/C (dose: 5.0 mg/kg/injection, schedule: Q01DX009 (ip), vehicle: saline with Tween-80): 101 % of control
T/C (dose: 10.0 mg/kg/injection, schedule: Q01DX009 (ip), vehicle: saline with Tween-80): 103 % of control

CCN(CC)CCOC(=O)Cc1cc(C)cc2c(=O)cc(-c3ccccc3)oc12
T/C [8]: 97 % of control
T/C [9]: 102 % of control
T/C [10]: 101 % of control

Cc1cc(=O)n2c(nc3cc(C)c(C)cc32)s1
T/C [19]: 103 % of control
T/C [20]: 100 % of control

COC(=O)c1cc(=O)c2scc(C)[n+]2[nH]1
T/C [11]: 105 % of control
T/C [12]: 100 % of control
T/C [13]: 100 % of control

Clc1ccc(-c2nnc(-c3cccc(Cl)n3)o2)c(Cl)c1
T/C (dose: 43.8 mg/kg/injection, schedule: Q01DX005 (ip), vehicle: saline with Tween-80): 99 % of control
T/C (dose: 87.5 mg/kg/injection, schedule: Q01DX005 (ip), vehicle: saline with Tween-80): 87 % of control

CCCCCCCCCCCCCCCCCSc1c(O)c(O)c2cccnc2c1O (tested in a mixture with another compound)
T/C [17]: 104 % of control
T/C [18]: 105 % of control

Cc1[nH]c(=O)nc(Nc2ccc(Cl)cc2)c1C(=O)N1CCN(CCO)CC1
T/C [1]: 93 % of control
T/C [2]: 90 % of control and 93 % of control
T/C [3]: 102 % of control and 93 % of control

CC(=O)Oc1cc(C)cc2ccc(-c3ccc4cc(C)cc(OC(C)=O)c4c3OC(C)=O)c(OC(C)=O)c12
T/C [19]: 96 % of control
T/C [20]: 96 % of control
T/C (dose: 200.0 mg/kg/injection, schedule: Q01DX009 (ip), vehicle: Klucel (hydroxypropylcellulose) (HPC)): 96 % of control

CSC1=NS(=O)(=O)c2ccccc21
T/C [11]: 96 % of control
T/C [12]: 96 % of control
T/C [13]: 103 % of control
